# Measurements as given in US20130295036A1, “METHOD OF USING WOOD EXTRACTS IN COSMETIC AND HYGIENE PRODUCTS” (FLAVITPURE, INC., priority 2012, published 2013).
# How the values were obtained:
# [1] = test system: 5-LOX mediated LT biosynthesis; assay: Leukotriene (LT) biosynthesis inhibition; assay type: biochemical
# From the text: (§1) The body's early defense in response to trauma, inflammation or infection, the acute phase response (APR), is a complex set of systemic reactions seen shortly after exposure to a triggering event. The APR is induced by protein hormones called cytokines acting as messengers between the local site of injury and the hepatocytes synthesizing the acute phase proteins such as serum amyloid A. Most cytokines have multiple sources, targets and multiple functions. The pro-inflammatory cytokines can be divided into two major groups with respect to acute phase proteins inductions, the Interleukin-1 (IL-1) type (including Tumor Necrosis Factor-a, TNF-a) and the IL-6 type cytokines (including IL-6 cytokine). These cytokines are secreted primarily by monocytes activated by bacterial toxins or in response to local tissue injury.
# COX-2 = molecular target: T1, COX-2 (Homo sapiens, UniProt P35354); assay: COX-2 inhibition; assay type: biochemical
# T1 sequence (P35354 18-604): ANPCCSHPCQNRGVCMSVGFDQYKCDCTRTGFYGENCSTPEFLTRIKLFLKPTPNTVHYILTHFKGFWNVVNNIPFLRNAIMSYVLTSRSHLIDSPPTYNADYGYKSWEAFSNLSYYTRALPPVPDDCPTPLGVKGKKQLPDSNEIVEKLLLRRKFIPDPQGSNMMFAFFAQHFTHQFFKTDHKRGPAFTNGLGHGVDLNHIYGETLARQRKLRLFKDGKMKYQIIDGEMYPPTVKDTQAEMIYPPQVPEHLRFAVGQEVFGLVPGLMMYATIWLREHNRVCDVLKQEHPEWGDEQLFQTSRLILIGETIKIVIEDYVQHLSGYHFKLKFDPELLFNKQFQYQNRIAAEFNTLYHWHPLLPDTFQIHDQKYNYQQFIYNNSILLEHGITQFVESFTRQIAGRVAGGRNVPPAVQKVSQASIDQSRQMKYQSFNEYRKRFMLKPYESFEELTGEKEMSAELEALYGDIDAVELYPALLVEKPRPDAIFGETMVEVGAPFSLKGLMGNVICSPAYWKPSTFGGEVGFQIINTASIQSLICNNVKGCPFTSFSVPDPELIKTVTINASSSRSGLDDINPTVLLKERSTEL
# From the text: as §1
# serum and liver lipids = settings: following exposure to toxic ionizing radiation; cited from earlier work
# [2] = test system: dendritic cells of bone marrow and spleen; settings: cited from earlier work
# [3] = test system: Antioxidant Response Element; settings: cited from earlier work
# rats = settings: high levels for long periods of time; cited from earlier work
# lipid peroxidation = settings: in vitro and ex vivo; cited from earlier work
smiles,measurement,setting,value
C=CC(C)(O)CCC1C(=C)CC(OC(C)=O)C2C(C)(C)CCCC12C (stereo not shown) [Larixyl acetate],LT biosynthesis inhibitory activity,[1],highly active
CC(C)C1=CC2=C(CC1)[C@@]1(C)CCC[C@@](C)(C(=O)O)[C@@H]1CC2 [palustric acid],LT biosynthesis inhibitory activity,[1],less pronounced
same,COX-2 inhibitory activity,COX-2,moderate
"O=C1c2c(O)cc(O)cc2O[C@H](c2ccc(O)c(O)c2)[C@H]1O [Dihydroquercetin (taxifolin), (2R,3R)-2-(3,4-dihydroxyphenyl)-3,5,7-trihydroxy-chroman-4-one]",peroxidation of serum and liver lipids,serum and liver lipids,inhibited
same,"production of cytokines, formation of ROS and NO, and change in intracellular Ca2+ levels",[2],significant inhibitory effect
same,activation of Antioxidant Response Element,[3],significantly activates
same,toxic effects,rats,No toxic effects
same,inhibition of lipid peroxidation,lipid peroxidation,inhibits lipid peroxidation
C=C[C@@]1(C)CC[C@H]2C(=CC[C@@H]3[C@]2(C)CCC[C@@]3(C)C(=O)O)C1 [Isopimaric acid],LT biosynthesis inhibitory activity,[1],potent inhibitor
CC(C)c1ccc2c(c1)CC[C@H]1[C@](C)(CO)CCC[C@]21C [dehydroabietinol],LT biosynthesis inhibitory activity,[1],high LT formation inhibitory activity
